Experimental data as given in patent publication US11802120B2, “Fused cyclic urea derivatives as CRHR2 antagonist” (RaQualia Pharma Inc., priority 2018, dated 2023).

What was measured:
[1] = target: T1, human CRHR1-beta (Homo sapiens, UniProt P34998); experiment: cAMP functional assay for human CRHR1 (LANCE Ultra cAMP, TR-FRET); assay type: cell-based; details: CHO-K1 cells expressing human CRHR1-beta, agonist CRF at EC80, cAMP; read-out: IC50 against CRHR1
T1 sequence (P34998 24-444 isoform P34998-1 limits assumed): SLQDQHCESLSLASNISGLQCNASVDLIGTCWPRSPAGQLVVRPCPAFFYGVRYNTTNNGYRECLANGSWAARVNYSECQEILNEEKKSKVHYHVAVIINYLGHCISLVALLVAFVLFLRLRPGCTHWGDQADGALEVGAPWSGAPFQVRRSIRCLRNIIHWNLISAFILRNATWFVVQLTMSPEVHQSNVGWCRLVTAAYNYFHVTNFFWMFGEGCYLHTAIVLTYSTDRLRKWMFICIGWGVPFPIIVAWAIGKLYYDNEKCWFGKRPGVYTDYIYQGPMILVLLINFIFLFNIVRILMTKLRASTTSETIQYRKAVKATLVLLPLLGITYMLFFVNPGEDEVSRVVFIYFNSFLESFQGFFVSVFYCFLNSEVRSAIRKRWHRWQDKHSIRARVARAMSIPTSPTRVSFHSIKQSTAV
Procedure: cAMP functional assay for human CRHR1 and CRHR2
The ability of the compounds of this invention to inhibit either CRHR2 or CRHR1 is assessed by 3′,5′-cyclic adenosine monophosphate (cAMP) production in cells using the LANCE Ultra cAMP assay kit (ParkinElmer), which are designed based on the homogeneous time-resolved fluorescence resonance energy transfer (TR-FRET) immunoassay.
CHO-K1 (Chinese hamster ovary) cells stably expressing either human CRHR2-alpha (DiscoveRX, Cat. 95-0048C2) or human CRHR1-beta (DiscoveRX, Cat. 95-0047C2) are grown in HAM's F12 media supplemented with 10% fetal bovine serum (FBS), 100 units/mL penicillin, 100 microg/mL hygromycin and 0.5 microg/mL geneticin at 37° C. in 5% CO2 humidified incubator to 80% confluence. After 7 hours starvation treatment in culture media containing 0.1% FBS, the cells are washed with Hanks balanced salt solution (HBSS) and cryopreserved.
For cAMP assay, frozen cells are thawed and washed with HBSS, followed by resuspended in assay buffer (HBSS containing 0.1% bovine serum albumin, 0.5 mM isobutylmethylxanthine and 5 mM Hepes, pH 7.4) at the appropriate concentration for the assay. The cell suspensions are plated on 384-well microplates (Greiner Bio-One) at a density of 4,000 cells per well. After preincubating the cells with various concentrations of the compounds for 30 min at 25° C., an assay buffer containing EC80 concentration of each agonist is added and the cells are incubated for 30 min at 25° C. Human urocortin2 (Peptide Institute) and CRF (Peptide Institute) are used as agonists for CRHR2 and CRHR1, respectively. For the termination of assay, europium-labeled cAMP tracer and ULight (registered trademark) dye labeled cAMP antibodies, both prepared with Lance-Ultra cAMP detection reagent (Perkin Elmer) are added in the plate and incubate for 60 min at 25° C. After incubation, TR-FRET signal is detected by EnVision plate reader (PerkinElmer). The IC50 values for compounds are calculated from dose-response curves by fitting the percent inhibition using XLfit (ID Business Solutions).

[2] = target: T2, human CRHR2-alpha (Homo sapiens, UniProt Q13324); experiment: cAMP functional assay for human CRHR2 (LANCE Ultra cAMP, TR-FRET); assay type: cell-based; details: CHO-K1 cells expressing human CRHR2-alpha, agonist human urocortin2 at EC80, cAMP; read-out: IC50 against CRHR2
T2 sequence (Q13324 1-411): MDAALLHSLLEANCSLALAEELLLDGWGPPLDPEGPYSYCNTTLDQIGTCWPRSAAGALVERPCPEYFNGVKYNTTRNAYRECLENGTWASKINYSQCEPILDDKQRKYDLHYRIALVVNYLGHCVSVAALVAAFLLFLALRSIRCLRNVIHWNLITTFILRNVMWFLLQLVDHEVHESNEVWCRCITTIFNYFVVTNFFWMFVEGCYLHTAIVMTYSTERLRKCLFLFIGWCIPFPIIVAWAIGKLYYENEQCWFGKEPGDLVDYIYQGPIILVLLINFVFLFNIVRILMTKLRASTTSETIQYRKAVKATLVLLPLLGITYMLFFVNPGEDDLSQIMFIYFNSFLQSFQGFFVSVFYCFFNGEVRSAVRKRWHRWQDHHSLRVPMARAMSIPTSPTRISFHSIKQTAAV
How it was run: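 Inhibition of agonist-driven cAMP was assessed in recombinant CHO-K1 cells at 25° C, using 30 min compound pretreatment and 30 min stimulation with EC80 human urocortin2 (CRHR2) or CRF (CRHR1). IC50 came from dose-response fitting.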

Structure (SMILES)	IC50 [1] [µM]	IC50 [2] [µM]
Cc1ccc(-n2c(=O)n(C[C@H]3CC[C@H](NC(=O)c4cc(Cl)cnc4C)CC3)c3ccccc32)cn1 [Example 31, 5-chloro-2-methyl-N-((1r,4r)-4-((3-(6-methylpyridin-3-yl)-2-oxo-2,3-dihydro-1H-benzo[d]imidazol-1-yl)methyl)cyclohexyl)nicotinamide]	< 1	
Cc1ncc(Cl)cc1C(=O)N[C@H]1CC[C@H](Cn2c(=O)n(-c3ccc(F)cc3)c3ccccc32)CC1 [Example 15, 5-chloro-N-((1r,4r)-4-((3-(4-fluorophenyl)-2-oxo-2,3-dihydro-1H-benzo[d]imidazol-1-yl)methyl)cyclohexyl)-2-methylnicotinamide]	< 1	< 0.3
Cc1ncc(Cl)cc1C(=O)N[C@H]1CC[C@H](Cn2c(=O)n(-c3ccc(N4CCN(C)CC4)nn3)c3ccccc32)CC1 [Example 68, 5-chloro-2-methyl-N-((1r,4r)-4-((3-(6-(4-methylpiperazin-1-yl)pyridazin-3-yl)-2-oxo-2,3-dihydro-1H-benzo[d]imidazol-1-yl)methyl)cyclohexyl)nicotinamide]	< 1	
COc1ccccc1-n1c(=O)n(C[C@H]2CC[C@H](NC(=O)c3cc(Cl)cnc3C)CC2)c2ccccc21 [Example 34, 5-chloro-N-((1r,4r)-4-((3-(2-methoxyphenyl)-2-oxo-2,3-dihydro-1H-benzo[d]imidazol-1-yl)methyl)cyclohexyl)-2-methylnicotinamide]	< 1	< 0.3
Cc1ccc(-n2c(=O)n(C[C@H]3CC[C@H](NC(=O)c4cc(Cl)cnc4C)CC3)c3ccccc32)cc1 [Example 25, 5-chloro-2-methyl-N-((1r,4r)-4-((2-oxo-3-(p-tolyl)-2,3-dihydro-1H-benzo[d]imidazol-1-yl)methyl)cyclohexyl)nicotinamide]	< 1	< 0.3
COc1ccc(-n2c(=O)n(C[C@H]3CC[C@H](NC(=O)c4cc(Cl)cnc4C)CC3)c3ccccc32)cc1 [Example 27, 5-chloro-N-((1r,4r)-4-((3-(4-methoxyphenyl)-2-oxo-2,3-dihydro-1H-benzo[d]imidazol-1-yl)methyl)cyclohexyl)-2-methylnicotinamide]	< 1	< 0.3
Cc1ncc(Cl)cc1C(=O)N[C@H]1CC[C@H](Cn2c(=O)n(-c3ccc(OCCO)nn3)c3ccccc32)CC1 [Example 69, 5-chloro-N-((1r,4r)-4-((3-(6-(2-hydroxyethoxy)pyridazin-3-yl)-2-oxo-2,3-dihydro-1H-benzo[d]imidazol-1-yl)methyl)cyclohexyl)-2-methylnicotinamide]	< 1	
COc1ncc(-n2c(=O)n(C[C@H]3CC[C@H](NC(=O)c4cc(Cl)cnc4C)CC3)c3ccccc32)cn1 [Example 43, 5-chloro-N-((1r,4r)-4-((3-(2-methoxypyrimidin-5-yl)-2-oxo-2,3-dihydro-1H-benzo[d]imidazol-1-yl)methyl)cyclohexyl)-2-methylnicotinamide]	< 1	
Cc1ncc(Cl)cc1C(=O)N[C@H]1CC[C@H](CN2C(=O)N(c3ccccc3)Cc3ccccc32)CC1 [Example 136, 5-chloro-2-methyl-N-((1r,4r)-4-((2-oxo-3-phenyl-3,4-dihydro-quinazolin-1(2H)-yl)methyl)cyclohexyl)nicotinamide]	< 1	
Cc1ncc(Cl)cc1C(=O)N[C@H]1CC[C@H](Cn2c(=O)n(-c3ccc(N4CC[C@H](N(C)C)C4)nc3)c3ccccc32)CC1 [Example 61, 5-chloro-N-((1S,4r)-4-((3-(6-((S)-3-(dimethylamino)pyrrolidin-1-yl)pyridin-3-yl)-2-oxo-2,3-dihydro-1H-benzo[d]imidazol-1-yl)methyl)cyclohexyl)-2-methylnicotinamide]	< 1	
Cc1ncc(Cl)cc1C(=O)N[C@H]1CC[C@H](Cn2c(=O)n(-c3ccc(OCCN(C)C)nc3)c3c(C)cccc32)CC1 [Example 59, 5-chloro-N-((1r,4r)-4-((3-(6-(2-(dimethylamino)ethoxy)pyridin-3-yl)-4-methyl-2-oxo-2,3-dihydro-1H-benzo[d]imidazol-1-yl)methyl)cyclohexyl)-2-methylnicotinamide]	< 1	
Cc1ncc(Cl)cc1C(=O)N[C@H]1CC[C@H](Cn2c(=O)n(CC3CCOCC3)c3ccccc32)CC1 [Example 3, 5-chloro-2-methyl-N-((1r,4r)-4-((2-oxo-3-((tetrahydro-2H-pyran-4-yl)methyl)-2,3-dihydro-1H-benzo[d]imidazol-1-yl)methyl)cyclohexyl)nicotinamide]	< 1	
Cc1ncc(Cl)cc1C(=O)N[C@H]1CC[C@H](Cn2c(=O)n(-c3ccc(N4CC[C@@H](O)C4)nc3)c3ccccc32)CC1 [Example 81, 5-chloro-N-((1R,4r)-4-((3-(6-((R)-3-hydroxypyrrolidin-1-yl)pyridin-3-yl)-2-oxo-2,3-dihydro-1H-benzo[d]imidazol-1-yl)methyl)cyclohexyl)-2-methylnicotinamide]	< 1	
Cc1ncc(Cl)cc1C(=O)N[C@H]1CC[C@H](Cn2c(=O)n(-c3ccc(N4CC[C@H](O)C4)nc3)c3ccccc32)CC1 [Example 80, 5-chloro-N-((1S,4r)-4-((3-(6-((S)-3-hydroxypyrrolidin-1-yl)pyridin-3-yl)-2-oxo-2,3-dihydro-1H-benzo[d]imidazol-1-yl)methyl)cyclohexyl)-2-methylnicotinamide]	< 1	
Cc1ncc(Cl)cc1C(=O)N[C@H]1CC[C@H](Cn2c(=O)n(-c3ccc(CO)cc3)c3ccccc32)CC1 [Example 21, 5-chloro-N-((1r,4r)-4-((3-(4-(hydroxymethyl)phenyl)-2-oxo-2,3-dihydro-1H-benzo[d]imidazol-1-yl)methyl)cyclohexyl)-2-methylnicotinamide]	< 1	
Cc1ncc(Cl)cc1C(=O)N[C@H]1CC[C@H](Cn2c(=O)n(-c3ccc(OCCN(C)C)cc3)c3ccccc32)CC1 [Example 73, 5-chloro-N-((1r,4r)-4-((3-(4-(2-(dimethylamino)ethoxy)phenyl)-2-oxo-2,3-dihydro-1H-benzo[d]imidazol-1-yl)methyl)cyclo-hexyl)-2-methylnicotinamide]	< 1	
Cc1ncc(Cl)cc1C(=O)N[C@H]1CC[C@H](Cn2c(=O)n(-c3ccc(N4CCN(CCO)CC4)nc3)c3ccccc32)CC1 [Example 65, 5-chloro-N-((1r,4r)-4-((3-(6-(4-(2-hydroxyethyl)piperazin-1-yl)pyridin-3-yl)-2-oxo-2,3-dihydro-1H-benzo[d]imidazol-1-yl)methyl)cyclohexyl)-2-methylnicotinamide]	< 1	
Cc1ncc(Cl)cc1C(=O)N[C@H]1CC[C@H](Cn2c(=O)n(-c3ccc(OC[C@H]4CNCCO4)nc3)c3ccccc32)CC1 [Example 74, 5-chloro-2-methyl-N-((1R,4r)-4-((3-(6-((R)-morpholin-2-ylmethoxy)pyridin-3-yl)-2-oxo-2,3-dihydro-1H-benzo[d]imidazol-1-yl)methyl)cyclohexyl)nicotinamide]	< 1	
